Experimental data from publication PMC11202288, “The Structural Basis of the Activity Cliff in Modafinil-Based Dopamine Transporter Inhibitors” (Biomolecules, 2024).
Read-outs that look alike come from different tables or passages of the source.

Biological target: T1, hDAT (human dopamine transporter) (Homo sapiens, UniProt Q01959)
T1 construct: gene SLC6A3; full-length human DAT stably expressed in HEK293 cells; membrane preparation
Assay: [3H]WIN35, […] competition binding, HEK293-hDAT membranes

[1] = read-out: hDAT Ki ± SEM (nM) ^a (n)

T1 sequence (Q01959 whole entry): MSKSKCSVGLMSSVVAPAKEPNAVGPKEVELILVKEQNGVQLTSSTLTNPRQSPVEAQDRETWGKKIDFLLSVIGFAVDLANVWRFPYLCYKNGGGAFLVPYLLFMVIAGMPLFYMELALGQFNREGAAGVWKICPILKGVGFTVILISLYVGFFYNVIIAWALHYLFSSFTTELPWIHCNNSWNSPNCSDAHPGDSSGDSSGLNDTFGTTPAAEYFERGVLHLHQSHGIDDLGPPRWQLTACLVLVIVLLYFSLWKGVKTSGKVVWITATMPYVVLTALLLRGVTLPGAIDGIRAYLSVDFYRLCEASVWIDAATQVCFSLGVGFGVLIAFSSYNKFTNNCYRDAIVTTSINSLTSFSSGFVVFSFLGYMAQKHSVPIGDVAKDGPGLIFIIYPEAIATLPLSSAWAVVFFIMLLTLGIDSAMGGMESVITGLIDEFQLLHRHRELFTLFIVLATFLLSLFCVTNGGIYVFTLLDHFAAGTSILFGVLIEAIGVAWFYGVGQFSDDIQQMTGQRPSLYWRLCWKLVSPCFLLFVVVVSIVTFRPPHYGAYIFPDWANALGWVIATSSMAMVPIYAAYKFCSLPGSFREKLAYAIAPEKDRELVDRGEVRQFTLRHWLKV

SMILES	Ki [1] [nM]	Ki [nM]
CC(O)CN1[C@H](C)CN(CC[S+]([O-])C(c2ccc(F)cc2)c2ccc(F)cc2)C[C@@H]1C (stereo partly drawn) [RDS4-010]	1570 ± 186	–
CC(O)CN1[C@H](C)CN(CCSC(c2ccc(F)cc2)c2ccc(F)cc2)C[C@@H]1C (stereo partly drawn) [RDS3-094]	–	50.1 ± 6.51
CC(O)CN1CCN(CCSC(c2ccc(F)cc2)c2ccc(F)cc2)CC1 (stereo not drawn) [JJC8-089]	69.1 ± 10.5	–
